Results: patent US20240398757A1 (COCRYSTAL PHARMA, INC., priority 2022, published 2024)

What follows are compounds tested against T1, SARS2 protease (Severe acute respiratory syndrome coronavirus 2, UniProt P0DTD1) (assay: SARS-CoV-2 protease inhibition assay (SARS2 FRET protease assay)). Details: IC50 (μM), SARS2 protease 30 nM, peptide substrate 1.3 μM, 120 minutes at 37° C., compounds 20 μM to 0.075 nM.
T1 construct: SARS2 protease was added to a final concentration of 30 nM
Format: biochemical

SMILES	IC50 [nM]
CCCC[C@H](NC(=O)OC(c1cccc(F)c1)C(F)(F)c1cccc(Cl)c1)C(=O)N[C@H](C=O)C[C@@H]1CCNC1=O (stereo partly drawn) [Compound A99]	0.6
CCC[C@H](NC(=O)OC(c1ccccc1)C(F)(F)c1cccc(F)c1)C(=O)N[C@@H](C[C@@H]1CCNC1=O)C(=O)C(=O)NC1CC1 (stereo partly drawn) [Compound A100]	250
CCC(=O)OC([C@H](C[C@@H]1CCNC1=O)NC(=O)[C@H](CC1CCCCC1)NC(=O)OC(c1ccccc1)C(F)(F)c1cccc(Cl)c1)S(=O)(=O)O (stereo partly drawn) [Compound A101]	178
O=C[C@H](C[C@@H]1CCNC1=O)NC(=O)[C@H](CC1CCC1)NC(=O)OC(c1ccccc1)C(F)(F)c1cccc(Cl)c1 (stereo partly drawn) [Compound A102]	0.1
O=C(N[C@@H](CC1CCCC1)C(=O)N[C@@H](C[C@@H]1CCNC1=O)C(=O)C(=O)NC1CC1)OC(c1ccccc1)C(F)(F)c1cccc(Cl)c1 (stereo partly drawn) [Compound A103]	156
CCCC[C@H](NC(=O)OC(c1cccc(F)c1)C1(c2cccc(F)c2)CC1)C(=O)N[C@@H](C[C@@H]1CCNC1=O)C(=O)C(=O)NC1CC1 (stereo partly drawn) [Compound A104]	309
CCCC[C@H](NC(=O)OC(c1cccc(F)c1)C1(c2cccc(Cl)c2)CC1)C(=O)N[C@@H](C[C@@H]1CCNC1=O)C(=O)C(=O)NC1CC1 (stereo partly drawn) [Compound A105]	510
CCCC[C@H](NC(=O)OC(c1cccc(F)c1)C(F)(F)c1cccc(Cl)c1)C(=O)N[C@@H](C[C@@H]1CCNC1=O)C(=O)C(=O)NC1CC1 (stereo partly drawn) [Compound A106]	170
CCCC[C@H](NC(=O)O[C@@H](c1ccccc1)C(F)(F)c1cccc(Cl)c1)C(=O)N[C@H](C=O)C[C@@H]1CCNC1=O [Compound A107, (S)-2-(3-chlorophenyl)-2,2-difluoro-1-phenylethyl ((S)-1-oxo-1-(((S)-1-oxo-3-((S)-2-oxopyrrolidin-3-yl)propan-2-yl)amino)hexan-2-yl)carbamate]	1
CCC[C@H](NC(=O)OC(c1ccccc1)C(F)(F)c1cccc(Cl)c1)C(=O)N[C@@H](C[C@@H]1CCNC1=O)C(=O)C(=O)NC1CC1 (stereo partly drawn) [Compound A109]	170
CCCC[C@H](NC(=O)O[C@H](c1ccccc1)C(F)(F)c1cccc(Cl)c1)C(=O)N[C@H](C=O)C[C@@H]1CCNC1=O [Compound A110, (R)-2-(3-chlorophenyl)-2,2-difluoro-1-phenylethyl ((S)-1-oxo-1-(((S)-1-oxo-3-((S)-2-oxopyrrolidin-3-yl)propan-2-yl)amino)hexan-2-yl)carbamate]	0.2
CCCC[C@H](NC(=O)O[C@H](c1ccccc1)C(F)(F)c1cccc(Cl)c1)C(=O)N[C@@H](C[C@@H]1CCNC1=O)C(O)S(=O)(=O)O (stereo partly drawn) [Compound A111]	2.8
CCCC[C@H](NC(=O)OC(c1ccccc1)C(F)(F)c1cccc(Cl)c1)C(=O)N[C@H](C=O)CC1CC(C)NC1=O (stereo partly drawn) [Compound A112]	179
CCCC(=O)OC([C@H](C[C@@H]1CCNC1=O)NC(=O)[C@H](CC1CCCCC1)NC(=O)OC(c1ccccc1)C(F)(F)c1cccc(Cl)c1)S(=O)(=O)O (stereo partly drawn) [Compound A113]	241
CCCC[C@H](NC(=O)OC(c1ccccc1)C(F)(F)c1cccc(Cl)c1)C(=O)N[C@H](C=O)C[C@@H]1CCCNC1=O (stereo partly drawn) [Compound A114]	0.3
CCCC[C@H](NC(=O)O[C@@H](c1ccccc1)C(F)(F)c1cccc(Cl)c1)C(=O)N[C@@H](C[C@@H]1CCNC1=O)C(=O)C(=O)NC1CC1 [Compound A115]	805
O=C(N[C@@H](CC1CCCCC1)C(=O)N[C@@H](C[C@@H]1CCNC1=O)C(=O)C(=O)NC1CC1)O[C@@H](c1ccccc1)C(F)(F)c1cccc(Cl)c1 [Compound A116]	28.9
CCNC(=O)C(=O)[C@H](C[C@@H]1CCNC1=O)NC(=O)[C@H](CC1CCCC1)NC(=O)OC(c1ccccc1)C(F)(F)c1cccc(Cl)c1 (stereo partly drawn) [Compound A117, 2-(3-chlorophenyl)-2,2-difluoro-1-phenylethyl ((S)-3-cyclopentyl-1-(((S)-4-(ethylamino)-3,4-dioxo-1-((S)-2-oxopyrrolidin-3-yl)butan-2-yl)amino)-1-oxopropan-2-yl)carbamate]	2.8
CCNC(=O)C(=O)[C@H](C[C@@H]1CCNC1=O)NC(=O)[C@H](CC1CCCCC1)NC(=O)O[C@@H](c1ccccc1)C(F)(F)c1cccc(Cl)c1 [Compound A120]	< 0.01
CCCC[C@H](NC(=O)O[C@@H](c1ccccc1)C(F)(F)c1cccc(Cl)c1)C(=O)N[C@@H](C[C@@H]1CCNC1=O)C(O)S(=O)(=O)O (stereo partly drawn) [Compound A121]	18
CCCC[C@H](NC(=O)O[C@@H](c1ccccc1)C(C)(C)c1cccc(Cl)c1)C(=O)N[C@H](C=O)C[C@H]1CCNC1=O [Compound A122, (S)-2-(3-Chlorophenyl)-2-methyl-1-phenylpropyl ((S)-1-oxo-1-(((S)-1-oxo-3-((R)-2-oxopyrrolidin-3-yl)propan-2-yl)amino)hexan-2-yl)carbamate]	< 0.1
CCCC[C@H](NC(=O)O[C@H](c1ccccc1)C(C)(C)c1cccc(Cl)c1)C(=O)N[C@H](C=O)C[C@H]1CCNC1=O [Compound A123]	5300
O=C[C@H](C[C@@H]1CCCNC1=O)NC(=O)[C@H](CC1CCCCC1)NC(=O)OC(c1ccccc1)C(F)(F)c1cccc(Cl)c1 (stereo partly drawn) [Compound A124]	0.1
O=C[C@H](C[C@@H]1CCNC1=O)NC(=O)[C@H](CC1CCCCC1)NC(=O)O[C@@H](c1ccccc1)C(F)(F)c1cccc(Cl)c1 [Compound A125]	4.2

SMILES	IC50 [nM]
O=C[C@H](C[C@@H]1CCNC1=O)NC(=O)[C@H](CC1CCCCC1)NC(=O)O[C@@H](c1ccccc1)C(F)(F)c1cccc(F)c1 [Compound A126]	< 0.01
CCCC[C@H](NC(=O)OC(c1ccccc1)C(F)(F)c1cccc(Cl)c1)C(=O)N[C@@H](C[C@@H]1CCCNC1=O)C(=O)C(=O)NC1CC1 (stereo partly drawn) [Compound A127]	10
CCOC(=O)/C=C/[C@H](C[C@@H]1CCNC1=O)NC(=O)[C@H](CC(C)C)NC(=O)OC(c1ccccc1)C(F)(F)c1cccc(Cl)c1 (stereo partly drawn) [Compound A128]	3950
O=C(N[C@@H](CC1CCCCC1)C(=O)N[C@@H](C[C@@H]1CCCNC1=O)C(=O)C(=O)NC1CC1)OC(c1ccccc1)C(F)(F)c1cccc(Cl)c1 (stereo partly drawn) [Compound A129]	130
CCNC(=O)C(=O)[C@H](C[C@@H]1CCNC1=O)NC(=O)[C@H](CC1CCCCC1)NC(=O)OC(c1ccccc1)C(C)(C)c1cccc(F)c1 (stereo partly drawn) [Compound A130]	88
CCNC(=O)C(=O)[C@H](C[C@@H]1CCNC1=O)NC(=O)[C@H](CC1CC1)NC(=O)OC(c1ccccc1)C(F)(F)c1cccc(Cl)c1 (stereo partly drawn) [Compound A131]	0.2
CCNC(=O)C(=O)[C@H](C[C@@H]1CCNC1=O)NC(=O)[C@H](CC1CCC1)NC(=O)OC(c1ccccc1)C(F)(F)c1cccc(Cl)c1 (stereo partly drawn) [Compound A132]	66
O=C(N[C@@H](CC1CCCCC1)C(=O)N[C@@H](C[C@@H]1CCNC1=O)C(O)S(=O)(=O)O)O[C@@H](c1ccccc1)C(F)(F)c1cccc(F)c1 (stereo partly drawn) [Compound A133]	2
CCNC(=O)C(=O)[C@H](C[C@@H]1CCNC1=O)NC(=O)[C@H](CC1CCCCC1)NC(=O)O[C@H](c1ccccc1)C(F)(F)c1cccc(Cl)c1 [Compound A134]	1180
O=C(N[C@@H](CC1CCCCC1)C(=O)N[C@@H](C[C@@H]1CCNC1=O)C(O)S(=O)(=O)O)O[C@H](c1ccccc1)C(F)(F)c1cccc(Cl)c1 (stereo partly drawn) [Compound A135]	2.2
CCCC[C@H](NC(=O)OC(c1ccccc1)C1(c2cccc(Cl)c2)CC1)C(=O)N[C@@H](C[C@@H]1CCNC1=O)C(=O)C(=O)NC1CC1 (stereo partly drawn) [Compound A136]	83
CCCC[C@H](NC(=O)O[C@H](c1ccccc1)C(F)(F)c1cccc(Cl)c1)C(=O)N[C@@H](C[C@@H]1CCNC1=O)C(=O)C(=O)NC1CC1 [Compound A137]	0.5
CCCC[C@H](NC(=O)OC(c1ccccc1)C(F)(F)c1cccc(Cl)c1)C(=O)N[C@@H](C[C@@H]1CCNC1=O)C(=O)C(=O)NCC (stereo partly drawn) [Compound A138]	28
CC(C)C[C@H](NC(=O)O[C@@H](c1cccc(Cl)c1)C(C)(C)c1cccc(Cl)c1)C(=O)N[C@H](C=O)C[C@@H]1CCNC1=O [Compound A139]	3
CC(C)C[C@H](NC(=O)O[C@H](c1cccc(Cl)c1)C(C)(C)c1cccc(Cl)c1)C(=O)N[C@H](C=O)C[C@@H]1CCNC1=O [Compound A140]	45
O=C(N[C@@H](CC1CCCCC1)C(=O)N[C@@H](C[C@@H]1CCNC1=O)C(O)S(=O)(=O)O)O[C@@H](c1ccccc1)C(F)(F)c1cccc(Cl)c1 (stereo partly drawn) [Compound A141, sodium (2S)-2-((S)-2-((((S)-2-(3-chlorophenyl)-2,2-difluoro-1-phenylethoxy)carbonyl)amino)-3-cyclohexylpropanamido)-1-hydroxy-3-((S)-2-oxopyrrolidin-3-yl)propane-1-sulfonate]	55
CC(C)C[C@H](NC(=O)O[C@@H](c1cccc(Cl)c1)C(C)(C)c1cccc(Cl)c1)C(=O)N[C@@H](C[C@@H]1CCNC1=O)C(=O)C(=O)NC1CC1 [Compound A142]	32
CCCC[C@H](NC(=O)O[C@@H](c1ccccc1)C(F)(F)c1cccc(F)c1)C(=O)N[C@H](C=O)C[C@@H]1CCNC1=O [Compound A143]	4
CCCC[C@H](NC(=O)O[C@H](c1ccccc1)C(F)(F)c1cccc(F)c1)C(=O)N[C@H](C=O)C[C@@H]1CCNC1=O [Compound A144]	23
CCC[C@H](NC(=O)OC(c1ccccc1)C(F)(F)c1cccc(Cl)c1)C(=O)N[C@@H](C[C@@H]1CCNC1=O)C(=O)C(=O)NCC (stereo partly drawn) [Compound A145]	150
CCCC[C@H](NC(=O)O[C@H](c1ccccc1)C(F)(F)c1cccc(Cl)c1)C(=O)N[C@H](C=O)C[C@@H]1CCCNC1=O [Compound A146]	38
CC(C)C[C@H](NC(=O)O[C@H](c1cccc(Cl)c1)C(C)(C)c1cccc(Cl)c1)C(=O)N[C@@H](C[C@@H]1CCNC1=O)C(=O)C(=O)NC1CC1 [Compound A147]	558
CCC[C@H](NC(=O)O[C@@H](c1ccc(F)cc1)C(F)(F)c1cccc(Cl)c1)C(=O)N[C@H](C=O)C[C@@H]1CCNC1=O [Compound A148]	7
CC(C)C[C@H](NC(=O)O[C@H](c1ccc(F)cc1)C(F)(F)c1cccc(Cl)c1)C(=O)N[C@H](C=O)C[C@@H]1CCNC1=O [Compound A149]	0.1
